Measurements: BigSolDB 2.1

N#CCNC(=O)c1cnccc1C(F)(F)F
solubility (mole fraction)
Conditions | 283.15 K | 288.15 K | 293.15 K | 298.15 K | 303.15 K | 308.15 K | 313.15 K | 318.15 K | 323.15 K
in 1,4-dioxane | – | 0.0145 | 0.0175 | 0.0208 | 0.0248 | 0.0295 | 0.0348 | 0.041 | 0.0482
in THF | 0.0263 | 0.0302 | 0.0343 | 0.0387 | 0.044 | 0.0502 | 0.057 | 0.0645 | 0.072
in acetone | 0.0359 | 0.041 | 0.0464 | 0.0527 | 0.0595 | 0.0677 | 0.0766 | 0.0871 | 0.099
in acetonitrile | 0.0173 | 0.0206 | 0.0245 | 0.0289 | 0.034 | 0.0404 | 0.0475 | 0.0557 | 0.0657
in ethanol | 0.00429 | 0.00546 | 0.00686 | 0.00856 | 0.0107 | 0.0133 | 0.0163 | 0.0202 | 0.0246
in ethyl acetate | 0.00961 | 0.0114 | 0.0134 | 0.0158 | 0.0182 | 0.0213 | 0.0248 | 0.0288 | 0.033
in isobutanol | 0.00152 | 0.00202 | 0.00264 | 0.00343 | 0.00441 | 0.00561 | 0.0071 | 0.00885 | 0.011
in isopropanol | 0.00249 | 0.00328 | 0.00424 | 0.00543 | 0.00696 | 0.00893 | 0.0114 | 0.0144 | 0.0181
in methanol | 0.00943 | 0.0115 | 0.0139 | 0.0168 | 0.0202 | 0.0241 | 0.0286 | 0.034 | 0.0402
in n-butanol | 0.00298 | 0.00376 | 0.00475 | 0.00589 | 0.00731 | 0.00906 | 0.0111 | 0.0138 | 0.0169
in n-butyl acetate | 0.00479 | 0.00572 | 0.00684 | 0.00806 | 0.00932 | 0.011 | 0.0128 | 0.015 | 0.0173
in n-propanol | 0.00267 | 0.00344 | 0.00436 | 0.00552 | 0.00691 | 0.00874 | 0.0109 | 0.0138 | 0.0174
